Results reported in patent publication US9982265B2, “Inhibition of Bruton's tyrosine kinase (Btk) in the lung to treat severe lung inflammation and lung injury” (BOARD OF REGENTS, THE UNIVERSITY OF TEXAS SYSTEM, priority 2014, dated 2018).

What was measured:
[1] = system: ApoE−/− mice fed Western Diet and exposed to SHS; assay: Second hand smoke-induced emphysema/COPD model, PicroSirius Red and Hart's Elastin lung staining; type: in vivo; conditions: i.v. twice a week for 4 weeks, FIG. 18, 19
Description: Second Hand Smoke (SHS)-Induced COPD: Chronic exposure of mice to SHS induces abnormal pulmonary inflammation, airway remodeling and airspace enlargement due to destruction of alveolar walls which are characteristic of COPD (Pappas et al., supra). The present studies used both wild-type (WT) mice exposed to SHS and apolipoprotein E-(ApoE^−/−)-genetically deficient mice to study comorbidities of COPD. The targeted deletion of the apoE gene leads to severe hypercholesterolemia and spontaneous atherosclerosis. Lesions of ApoE^−/− mice resemble their human counterparts and develop over time from initial fatty streaks to complex lesions. (A high-fat, high-cholesterol diet can strongly accelerate the process.) Exposure of ApoE^−/− mice to SHS triggers characteristic decline of lung function that is seen in patients with COPD (Arunachalam, G. et al., supra). ApoE^−/− mice were fed a regular diet (control) and a high fat/cholesterol (1%) diet to shorten the time required for the development of atherosclerosis.
WT and ApoE^−/− diet groups were divided into equal subgroups: control and SHS. SHS groups were exposed to cigarette smoke for 4 h per day, 5 days a week, for up to 20 weeks. A Teague TE-10 microprocessor-controlled smoking machine was used to produce side stream mixed with a smaller amount of main stream smoke. […] TSP values were measured twice a week or as necessary. […]

[2] = system: mice with anti-KC:KC IC ALI; assay: anti-KC:KC IC model of ALI, Lung Injury Score; type: in vivo; conditions: Table 4; mice immunized with KC then given KC; score 0 to 2; means ± SD, 3 animals per group
Procedure: Anti-KC:KC immune complexes were prepared according to the protocol routinely used in our laboratory (28). Some mice received Btk specific siRNA intranasally. In other experiments the animals were treated i.n. with siRNA specific for Btk (see SEQ ID NOs:18-25) or MMP-9 (Invitrogen), both conjugated (T3™-MAX Conjugation Kit (Bioo Scientific Corporation, Austin, Tex.) to F(ab′)2 fragments of anti-mouse neutrophil antibody Ly-6G1A8). F(ab′)2 fragments alone or conjugated to control siRNA (SEQ ID NO's 26 and 27) (Invitrogen) served as controls of the treatment. Two or fourteen hours after i.n. administration of either immune complexes or saline, the animals were euthanized and samples collected for further evaluation. To study role of neutrophil FcγRIII receptors neutrophils were first depleted by i.p. injection of vinblastine (31) followed by adoptive transfer of cells deficient in FcγRIII receptors prepared as described below. […] Lung dysfunction was assessed by analysis of pulmonary histopathology.
Pulmonary Histopathology: Lungs were fixed in ExCellPlus (AMTS, Lodi, Calif.), embedded in paraffin, and sectioned at 5 μm. […] The images of stained sections were evaluated for the presence of alveolar exudate, infiltration of inflammatory cells, and interstitial thickening. Lung Injury Score (LIS) was assessed as described earlier (28). Most images were assessed at magnification of over 400×. […] At the minimum twenty sections from each group of mice were evaluated and 4 investigators participated in the analysis of 50 or more fields per group. According to recommendation of “An Official American Thoracic Society Workshop Report: Features and Measurements of Experimental Acute Lung Injury in Animals” (Am J Respir Cell Mol Biol 44 725-738, 2011) more than 20 high power fields were independently scored (as described above) and at least 50% of each field was occupied by lung alveoli. […]

SMILES: C=CC(=O)N1CCC[C@@H](n2nc(-c3ccc(Oc4ccccc4)cc3)c3c(N)ncnc32)C1 [PCI-32765, 1-[(3R)-3-[4-amino-3-(4-phenoxyphenyl)-pyrazolo[3,4-d]pyrimidin-1-yl]piperidin-1-yl]prop-2-en-1-one]
- effect on symptoms of emphysema/COPD [1]: dramatic protective effect

SMILES: CC[C@]1(O)C[C@@H]2CN(CCc3c([nH]c4ccccc34)[C@@](C(=O)OC)(c3cc4c(cc3OC)N(C)[C@H]3[C@@](O)(C(=O)OC)[C@H](OC(C)=O)[C@]5(CC)C=CCN6CC[C@]43[C@@H]65)C2)C1 [vinblastine]
- Lung Injury Score: Edema fluid [2]: 0.033 ± 0.029
- Lung Injury Score: Inflammatory infiltration [2]: 0.167 ± 0.029
- Lung Injury Score: Thickening of alveolar septa [2]: 0.133 ± 0.153
